Experiments:
GI WT protease = target: T1, GI WT protease (Norovirus, UniProt Q83883); assay: Cell-based FRET assay, GI WT protease; set-up: species or system norovirus GI.1 (M87661); settings: HEK293T cells, GI NS1/2-NS3 FRET substrate; read-out: 50% inhibitory concentration (IC50)
T1 construct: plasmids expressing norovirus protease from GI.1 (M87661); expressed in transfected cells; host or cells: HEK293T
Excerpt: (§1) The generation of plasmids expressing norovirus protease from GI.1 (M87661), GII.4 (DQ658413), or GV (DQ285629) norovirus and FRET assay constructs has been described previously ([18]). The plasmids carrying GI, GII, and GV proteases with the A105V, I109V, or A105V/I109V mutation were generated from the wild-type (WT) protease constructs described above by the QuikChange site-directed mutagenesis method. Mutant MNV genomes for reverse genetics were generated by two-step PCR mutagenesis of the WT MNV genome (pT7 MNV 3RZ) construct as described previously ([27]). The primers used for generation of the plasmids are listed in Tables S1 and S2 in the supplemental material.
(§2) The YFP/CFP ratio was used to determine FRET efficiency, as described previously ([18], [40]). Briefly, HEK293T cells were plated into black 96-well cell culture microplates (Greiner Bio-One) at a density of 5 × 10^4 cells/well in 100 μl of DMEM containing 10% fetal bovine serum with or without various concentrations of rupintrivir and then incubated for 4 h in a CO2 incubator at 37°C. […] The plates were then analyzed on a SpectraMax i3 instrument in fluorescence mode, with excitation set at 434 nm and the reading emissions set at 477 nm (CFP) and 527 nm (YFP). The background fluorescence from wells transfected with pcDNA3.1 was determined and subtracted. […]

GV WT protease = target: T2, GV WT protease (Norovirus, UniProt Q80J95); assay: Cell-based FRET assay, GV WT protease; set-up: species or system murine norovirus (MNV) GV (DQ285629); settings: HEK293T cells, GV NS1/2-NS3 FRET substrate
T2 construct: plasmids expressing norovirus protease from GI.1 (M87661), GII.4 (DQ658413), or GV (DQ285629) norovirus; expressed in transfected cells; host or cells: HEK293T
T2 sequence (Q80J95 995-1177 limits assumed): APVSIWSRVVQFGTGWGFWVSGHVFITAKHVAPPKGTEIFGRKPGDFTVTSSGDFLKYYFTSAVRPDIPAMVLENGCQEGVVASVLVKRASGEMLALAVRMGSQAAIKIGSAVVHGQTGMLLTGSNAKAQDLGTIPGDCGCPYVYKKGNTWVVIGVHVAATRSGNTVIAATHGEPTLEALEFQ
Excerpt: as §1, §2

recombinant WT MNV = assay: Antiviral effect against recombinant WT MNV infection of BV-2 cells (TCID50); assay type: cell-based, murine norovirus; settings: BV-2, 24 h
Description: BV-2 cells were infected with recombinant WT MNV or the MNV I109V mutant at an MOI of 0.1 or 1 for 1 h in the CO2 incubator at 37°C. After incubation, the supernatant was removed and the cells were washed twice with PBS, and then complete DMEM containing various concentrations of rupintrivir or 2CMC was added to the cells. After 24 h for incubation, the virus titers of the supernatant were determined by measurement of the TCID50. On the basis of the TCID50, the 90% effective concentration (EC90) values of rupintrivir and 2CMC were calculated using XLfit (version 5.3) software.

[1] = target: T3, MNV WT protease (polyprotein) (Norovirus, UniProt Q80J95); assay: In vitro translation, MNV polyprotein processing, WT protease; assay type: biochemical, murine norovirus; settings: 80 μM, rabbit reticulocyte lysate
T3 construct: in vitro-transcribed MNV full-length capped RNA containing either the WT or mutant proteases; made in house; host or cells: rabbit reticulocyte lysate (Flexi system, Promega), in vitro translation
Description: (§3) FIG 4 Impact of rupintrivir resistance-conferring mutations on MNV polyprotein processing in vitro. In vitro translation reactions were programmed with equal quantities of in vitro-transcribed MNV full-length capped RNA containing either the WT or mutant proteases in the presence and absence of 80 μM rupintrivir. The [^35S]methionine-labeled products were subsequently analyzed by SDS-PAGE and phosphorimaging analysis. The percentage of fully processed NS3, determined on the basis of the expected molecular mass of the proteins, was calculated and expressed relative to the total amount of viral protein produced.
(§4) In vitro translation reactions were performed using a Flexi rabbit reticulocyte lysate system (Promega). The reaction mixtures were prepared according to the manufacturer's instructions as described for capped mRNAs and programmed with 1 μg of RNA per 25-μl reaction mixture. The reaction mixtures were incubated at 30°C for 90 min prior to the addition of an equal volume of SDS-PAGE sample buffer. Samples were subsequently resolved on a 12.5% SDS-polyacrylamide gel before exposure to a phosphorimager screen.

[2] = target: T4, MNV A105V/I109V protease (polyprotein) (Norovirus, UniProt Q80J95, A1099V/I1103V); assay: In vitro translation, MNV polyprotein processing, A105V/I109V protease; assay type: biochemical, murine norovirus; settings: 80 μM, rabbit reticulocyte lysate
T4 construct: in vitro-transcribed MNV full-length capped RNA containing either the WT or mutant proteases; made in house; host or cells: rabbit reticulocyte lysate (Flexi system, Promega), in vitro translation
Description: as §3, §4

GI A105V mutant protease = target: T5, GI A105V mutant protease (Norovirus, UniProt Q83883, A1205V); assay: Cell-based FRET assay, GI A105V protease; set-up: species or system norovirus GI.1 (M87661)
T5 construct: plasmids expressing norovirus protease from GI.1 (M87661); expressed in transfected cells; host or cells: HEK293T
Excerpt: as §1, §2

in vitro = assay type: cell-based; settings: human; HGT-NV cells, 72 h, resazurin; read-out: 50% cytotoxic concentration (CC50)
Description: The cell cytotoxicity of rupintrivir against HGT-NV cells was determined by a resazurin assay ([39]). Briefly, subconfluent HGT-NV cells in 96-well plates were treated with various concentrations of rupintrivir and then incubated for 72 h in a CO2 incubator at 37°C. After incubation, the supernatant was removed and the cells were washed with PBS, and then complete DMEM containing resazurin (0.1 mg/ml) was added to the cells. After 4 h of incubation, the optical density at 560 nm with a 620-nm optical density reference was determined by using a SpectraMax i3 instrument (Molecular Devices). The 50% cytotoxic concentration (CC50) values of rupintrivir were calculated using XLfit (version 5.3) software.

[3] = target: T6, MNV I109V protease (polyprotein) (Norovirus, UniProt Q80J95, I1103V); assay: In vitro translation, MNV polyprotein processing, I109V protease; assay type: biochemical, murine norovirus; settings: 80 μM, rabbit reticulocyte lysate
T6 construct: in vitro-transcribed MNV full-length capped RNA containing either the WT or mutant proteases; made in house; host or cells: rabbit reticulocyte lysate (Flexi system, Promega), in vitro translation
Description: as §3, §4

T5 sequence (Q83883 1101-1281 A1205V): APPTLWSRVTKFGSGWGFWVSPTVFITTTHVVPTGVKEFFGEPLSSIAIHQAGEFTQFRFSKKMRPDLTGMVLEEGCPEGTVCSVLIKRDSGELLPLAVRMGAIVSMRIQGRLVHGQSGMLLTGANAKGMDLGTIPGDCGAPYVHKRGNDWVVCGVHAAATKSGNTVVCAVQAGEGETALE
T1 sequence (Q83883 1101-1281): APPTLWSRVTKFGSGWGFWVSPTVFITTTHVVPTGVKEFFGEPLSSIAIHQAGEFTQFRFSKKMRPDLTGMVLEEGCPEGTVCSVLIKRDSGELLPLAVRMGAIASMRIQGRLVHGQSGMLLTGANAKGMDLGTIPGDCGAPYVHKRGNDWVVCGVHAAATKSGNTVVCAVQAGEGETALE

**Q.** What does the source list for `CCOC(=O)/C=C/[C@H](C[C@@H]1CCNC1=O)NC(=O)[C@@H](CC(=O)[C@@H](NC(=O)c1cc(C)on1)C(C)C)Cc1ccc(F)cc1` [rupintrivir, Rupintrivir]?
**A.** IC50 (GI WT protease): 1.3 ± 0.4 µM; IC50 (GV WT protease): 1 ± 0.1 µM; EC90 (recombinant WT MNV; MOI 0.1 TCID50/cell): 9.1 µM; EC90 (recombinant WT MNV; MOI 1 TCID50/cell): 8.9 µM; polyprotein processing (mature NS3) [1]: prevented the cleavage of the polyprotein; polyprotein processing (mature NS3) [2]: still able to produce mature NS3; IC50 (GI A105V mutant protease; HEK293T cells, GI NS1/2-NS3 FRET substrate): 4.2 ± 1.1 µM; fold increase in IC50 (GI A105V mutant protease; vs GI WT protease): 3.2 fold; CC50 (in vitro): > 100 µM; polyprotein processing (mature NS3) [3]: still able to produce mature NS3

— paper PMC5923142, “Selection and Characterization of Rupintrivir-Resistant Norwalk Virus Replicon Cells In Vitro” (Antimicrobial Agents and Chemotherapy, 2018)
